# Experiments:
# S. aureus = test: Antibiotic activity, MIC; format: cell-based; details: Staphylococcus aureus
# E. coli = test: Antibiotic activity, MIC; format: cell-based; details: Escherichia coli
# [1] = test system: human microvascular cells; test: Endothelial cord formation assay; format: cell-based; on Effect on endothelial cord formation: key: + = Inhibition of angiogenesis; − = No inhibition of angiogenesis; T = Toxic; *= cell rounding @ 10 µg/ml
# Description: Endothelial cells have the capacity in vitro to form tubular aggregates resembling capillaries in various early stages of formation. This conversion occurs under relatively specific conditions, in which essential growth factors along with an effective substratum are provided. It has been shown that both the interaction of growth factors with the endothelial cell and its attachment to a substratum activate the NHE. The activation of this exchanger is believed to be required for subsequent morphologic transformation of the endothelial cell into a multicellular tubular structure.
# To assess the effect of compounds on the cord-like structures formed by human microvascular cells when plated in the presence of VGEF (Vascular Endothelial Growth Factor) and basic fibroblast growth factor on a collagen matrix, a standard cord formation assay was used.
# [2] = test system: vitelline capillaries of 3- to 5-day chick embryo; test: Chick embryo vitelline capillary regression assay; format: in vivo; design: key to Vascular reactivity (capillary regression): + = Vascular reactivity; 0 = No vascular reactivity; +/− = Equivocal reactivity; details: 60 minutes
# Procedure: Using the chick embryo vitelline capillaries assay, compounds were tested for their ability to induce capillary regression. Each compound was applied in 0.1 ml of 15% Ficol 400 and PBS onto the embryo, and vascular regression was assessed after 60 minutes.
# The 3-day chick embryo consists of an embryonic disc from which numerous vessels emerge and return, forming a “figure 8”-shaped structure—the embryo in the center with vascular loops extending outward over both poles. […] Following a lag period of around 15 minutes, the constriction of continuity between capillary and secondary vessels, generally on the “venous” side, was observed. Continued pulsatile blood flow progressed, resulting in a “swelling” of the blind tube, followed by a pinching off of the remaining connection and formation of an enclosed vascular sac resembling a “blood island.” This process progressed until only the largest vessels remained intact.
# [3] = test system: Stage 59-60 Xenopus tadpoles; test: Xenopus tadpole assay; format: in vivo, Xenopus laevis; details: 10 μg/ml in water
# Description: A newly developed assay employing tadpoles, preferably Xenopus laevis Stages 59-60, were employed to study the effect of a compound by monitoring capillary occlusion in the tadpole's tail. […] The compounds of the invention affect the shape, viability and integrity of the embryonic tissues while not affecting the adult tissues, providing a powerful, highly specific screen. For example, substances that destroy all of the animal's epithelium, both adult and embryonic, could be regarded as toxic.
# In this assay, tadpoles are introduced into Petri dishes containing a solution of the test compound in distilled water, preferably about 100 ml. The preferred concentration of the test compound is from about 1 μg/ml to about 10 μg/ml. The volume of liquid is sufficient for the animal to swim freely and drink from the solution. Thus, the effect observed results from oral absorption and subsequent systemic distribution of the agent. If the volume of liquid is not sufficient to permit oral intake, the effects that are observed would result from absorption through the surface epithelium. Thus, this simple assay can identify if an compound has characteristics of oral availability.
# After an amount of time, typically about 60 minutes, the occlusion of blood flow through capillaries in the tadpole's tail are observed under an inverted microscope at a magnification of roughly 100×.
# The tadpole assay described above provides an advantageous way to determine the pharmacological targets of each steroid when introduced into a mammal, and to determine pharmacological categories into which synthetic compounds belong. In the assay, each of the steroids was dissolved in 100 ml of distilled water at a concentration of 10 μg/ml. Stage 59-60 Xenopus tadpoles were introduced and evaluated by light microscopy and gross observation 1 hour later.
smiles,measurement,setting,value
CC(CCC(=O)O)[C@H]1CCC2C3C(CC[C@@]21C)[C@@]1(C)CC[C@H](NCCCNCCCCNCCCN)C[C@@H]1C[C@H]3O (stereo partly shown),MIC,S. aureus,16 µg/mL
same,MIC,E. coli,32 to 64 µg/mL
COC(=O)CCC(C)[C@H]1CCC2C3C(CC[C@@]21C)[C@@]1(C)CC[C@H](NCCCNCCCCN)C[C@H]1C[C@H]3O (stereo partly shown),MIC,S. aureus,64 µg/mL
same,MIC,E. coli,256 µg/mL
COC(=O)CCC(C)[C@H]1CCC2C3C(CC[C@@]21C)[C@@]1(C)CC[C@@H](NCCCNCCCCN)C[C@H]1C[C@H]3O (stereo partly shown),MIC,S. aureus,4 µg/mL
same,MIC,E. coli,32 to 64 µg/mL
CC(C)CCCC(C)[C@H]1CCC2C3C(CC[C@@]21C)[C@@]1(C)CC[C@H](N)C[C@@H]1C[C@H]3O (stereo partly shown),MIC,S. aureus,2 µg/mL
same,MIC,E. coli,> 256 µg/mL
COC(=O)CCC(C)[C@H]1CCC2C3C(CC[C@@]21C)[C@@]1(C)CC[C@H](NCCCNCCCCNCCCN)C[C@H]1C[C@H]3O (stereo partly shown),MIC,E. coli,64 µg/mL
COC(=O)CCC(C)[C@H]1CCC2C3C[C@@H](O)[C@H]4C[C@H](NCCN)CC[C@]4(C)C3CC[C@@]21C (stereo partly shown),MIC,E. coli,32 to 64 µg/mL
COC(O)CCC(C)[C@H]1CCC2C3C(CC[C@@]21C)[C@@]1(C)CC[C@H](NCCCNCCCCNCCCN)C[C@H]1C[C@H]3O (stereo partly shown),"Cord Formation, Minimum Effective Concentration",[1],10 µg/mL
CC(CCC(=O)O)[C@H]1CCC2C3C(CC[C@@]21C)[C@@]1(C)CC[C@H](NCCN)C[C@H]1C[C@H]3O (stereo partly shown),"Cord Formation, Minimum Effective Concentration",[1],>10 µg/mL
CC(C)CCCC(C)[C@H]1CCC2C3CC[C@H]4C[C@@H](NCCCNCCCCN)CC[C@]4(C)C3CC[C@@]21C (stereo partly shown) [Compound 303],Vascular reactivity (capillary regression),[2]; 1 μg applied,0
CC(CCC(=O)O)[C@H]1CCC2C3CC[C@H]4C[C@H](NCCCNCCCCN)CC[C@]4(C)C3CC[C@@]21C (stereo partly shown) [Compound 318],Vascular reactivity (capillary regression),[2]; 1 μg applied,0
CC(C)CCCC(C)[C@H]1CCC2C3C(CC[C@@]21C)[C@@]1(C)CC[C@@H](NCCCNCCCCN)C[C@@H]1C[C@H]3O (stereo partly shown) [Compound 370],Pharmacological category in tadpole assay (similarity to a reference steroid),[3],pharmacologic activity similar to that seen for FX 3
CC(CCC(=O)O)[C@H]1CCC2C3C(CC[C@@]21C)[C@@]1(C)CC[C@H](NCCCNCCCCN)C[C@@H]1C[C@H]3O (stereo partly shown) [Compound 381],Vascular reactivity (capillary regression),[2]; 1 μg applied,0
CC(CCC(=O)O)[C@H]1CCC2C3C(CC[C@@]21C)[C@@]1(C)CC[C@@H](NCCCNCCCCN)C[C@@H]1C[C@H]3O (stereo partly shown) [Compound 382],Vascular reactivity (capillary regression),[2]; 0.001 μg applied,0
same,Vascular reactivity (capillary regression),[2]; 0.01 μg applied,0
same,Vascular reactivity (capillary regression),[2]; 0.1 μg applied,0
same,Vascular reactivity (capillary regression),[2]; 1 μg applied,+
same,Vascular reactivity (capillary regression),[2]; 10 μg applied,+
COC(=O)CCC(C)[C@H]1CCC2C3C(CC[C@@]21C)[C@@]1(C)CC[C@H](NCCCNCCCCNCCCN)C[C@@H]1C[C@H]3O (stereo partly shown) [Compound 396],Vascular reactivity (capillary regression),[2]; 0.001 μg applied,0
same,Vascular reactivity (capillary regression),[2]; 0.01 μg applied,0
same,Vascular reactivity (capillary regression),[2]; 0.1 μg applied,0
same,Vascular reactivity (capillary regression),[2]; 1 μg applied,+
COC(=O)CCC(C)[C@H]1CCC2C3C(CC[C@@]21C)[C@@]1(C)CC[C@H](NCCCNCCCCNCCCN)C[C@H]1C[C@H]3O (stereo partly shown) [Compound 411],Vascular reactivity (capillary regression),[2]; 0.001 μg applied,0
same,Vascular reactivity (capillary regression),[2]; 0.01 μg applied,0
same,Vascular reactivity (capillary regression),[2]; 0.1 μg applied,0
same,Vascular reactivity (capillary regression),[2]; 1 μg applied,+/−
same,Effect on endothelial cord formation,[1]; 0.1 μg/ml,−
same,Effect on endothelial cord formation,[1]; 1.0 μg/ml,−
same,Effect on endothelial cord formation,[1]; 10.0 μg/ml,+
CC(CCC(=O)O)[C@H]1CCC2C3C(CC[C@@]21C)[C@@]1(C)CC[C@H](NCCN)C[C@H]1C[C@H]3O (stereo partly shown) [Compound 415],Vascular reactivity (capillary regression),[2]; 0.001 μg applied,0
same,Vascular reactivity (capillary regression),[2]; 0.01 μg applied,+
same,Vascular reactivity (capillary regression),[2]; 0.1 μg applied,+
same,Vascular reactivity (capillary regression),[2]; 1 μg applied,+
same,Effect on endothelial cord formation,[1]; 0.1 μg/ml,−
same,Effect on endothelial cord formation,[1]; 1.0 μg/ml,−
same,Effect on endothelial cord formation,[1]; 10.0 μg/ml,+/T
COC(=O)CCC(C)[C@H]1CCC2C3CC[C@@H]4C[C@H](NCCN)CC[C@]4(C)C3C[C@H](O)[C@@]21C (stereo partly shown) [Compound 416],Pharmacological category in tadpole assay (similarity to a reference steroid),[3],functionally similar to compound 1437
COC(=O)CCC(C)[C@H]1CCC2C3C[C@@H](O)[C@H]4C[C@H](NCCN)CC[C@]4(C)C3CC[C@@]21C (stereo partly shown) [Compound 431],Pharmacological category in tadpole assay (similarity to a reference steroid),[3],functionally similar to compound 1437
CC(CCC(=O)O)[C@H]1CCC2C3C[C@@H](O)[C@H]4C[C@@H](NCCN)CC[C@]4(C)C3CC[C@@]21C (stereo partly shown) [Compound 433],Pharmacological category in tadpole assay (similarity to a reference steroid),[3],functionally similar to compound 1437
CC(CCC(=O)O)[C@H]1CCC2C3CC[C@@H]4C[C@H](NCCCNCCCCNCCCN)CC[C@]4(C)C3C[C@H](O)[C@@]21C (stereo partly shown) [Compound 449],Effect on endothelial cord formation,[1]; 1.0 μg/ml,−
COC(=O)CCC(C)[C@H]1CCC2C3CC[C@H]4C[C@H](NCCCNCCCCNCCCN)CC[C@]4(C)C3CC[C@@]21C (stereo partly shown) [Compound 458],Pharmacological category in tadpole assay (similarity to a reference steroid),[3],pharmacologic activity similar to that seen for FX 3
COC(=O)CCC(C)[C@H]1CCC2C3CC[C@H]4C[C@@H](NCCCNCCCCNCCCN)CC[C@]4(C)C3CC[C@@]21C (stereo partly shown) [Compound 459],Pharmacological category in tadpole assay (similarity to a reference steroid),[3],pharmacologic activity similar to that seen for FX 3
COC(=O)CCC(C)[C@H]1CCC2C3C[C@@H](O)[C@H]4C[C@H](NCCCNCCCCNCCCN)CC[C@]4(C)C3CC[C@@]21C (stereo partly shown) [Compound 465],Pharmacological category in tadpole assay (similarity to a reference steroid),[3],pharmacologic activity similar to that seen for FX 3
CC(CCC(=O)O)[C@H]1CCC2C3C[C@@H](O)[C@H]4C[C@@H](NCCCNCCCCNCCCN)CC[C@]4(C)C3CC[C@@]21C (stereo partly shown) [Compound 467],Effect on endothelial cord formation,[1]; 1.0 μg/ml,−
same,Effect on endothelial cord formation,[1]; 10.0 μg/ml,−
CC(C)CCCC(C)[C@H]1CCC2C3C(CC[C@@]21C)[C@@]1(C)CC[C@H](N)C[C@@H]1C[C@H]3O (stereo partly shown) [Compound 1364],Vascular reactivity (capillary regression),[2]; 0.001 μg applied,0
same,Vascular reactivity (capillary regression),[2]; 0.01 μg applied,0
same,Vascular reactivity (capillary regression),[2]; 0.1 μg applied,0
same,Vascular reactivity (capillary regression),[2]; 1 μg applied,+
same,Vascular reactivity (capillary regression),[2]; 10 μg applied,+
"CO[C@@H]1[C@H](OC(=O)/C=C/C=C/C=C/C=C/C(=O)O)CC[C@]2(CO2)[C@H]1[C@@]1(C)O[C@@H]1CC=C(C)C [Fumagillin, reference compound]",Concentration that inhibits cord formation,[1],10 µg/mL
same,Effect on endothelial cord formation,[1]; 0.1 μg/ml,−
same,Effect on endothelial cord formation,[1]; 10.0 μg/ml,+
COC(=O)CCC(C)[C@H]1CCC2C3C(CC[C@@]21C)[C@@]1(C)CC[C@@H](NCCN)C[C@H]1C[C@H]3O (stereo partly shown) [drawing 70],MIC,S. aureus,16 µg/mL
same,MIC,E. coli,16 µg/mL
CC(CCC(=O)O)[C@H]1CCC2C3C(CC[C@@]21C)[C@@]1(C)CC[C@@H](NCCCNCCCCNCCCN)C[C@H]1C[C@H]3O (stereo partly shown) [drawing 72],MIC,S. aureus,8 µg/mL
CC(CCC(=O)O)[C@H]1CCC2C3C(CC[C@@]21C)[C@@]1(C)CC[C@H](NCCCNCCCCNCCCN)C[C@H]1C[C@H]3O (stereo partly shown) [drawing 73],MIC,S. aureus,8 µg/mL
same,MIC,E. coli,256 µg/mL
COC(=O)CCC(C)[C@H]1CCC2C3C(CC[C@@]21C)[C@@]1(C)CC[C@@H](NCCN)C[C@H]1C[C@H]3O (stereo partly shown) [drawing 118],"Cord Formation, Minimum Effective Concentration",[1],10 µg/mL
CC(CCC(=O)O)[C@H]1CCC2C3C(CC[C@@]21C)[C@@]1(C)CC[C@@H](NCCCNCCCCNCCCN)C[C@H]1C[C@H]3O (stereo partly shown) [drawing 152],"Cord Formation, Minimum Effective Concentration",[1],>10 µg/mL
CC(CCC(=O)O)[C@H]1CCC2C3C(CC[C@@]21C)[C@@]1(C)CC[C@H](NCCCNCCCCNCCCN)C[C@H]1C[C@H]3O (stereo partly shown) [drawing 154],"Cord Formation, Minimum Effective Concentration",[1],>10 µg/mL

# Reference: US6962909B2, “Treatment of neovascularization disorders with squalimine” (Genaera Corporation, priority 1995, dated 2005)
